Measurements reported in patent publication US20040097534A1, “Composition for the protection and regeneration of nerve cells containing berberine derivatives” (EUGENBIO INC., priority 2001, published 2004).

Test system: PC12 cells
Assay: MTT assay, PC12 survival under serum deprivation-induced stress
Assay type: cell-based, rat
Details: for O.D.: 2 days; for Average (O.D. relative to RPMI): RPMI = 100%
Procedure: Cell injuries under condition of serum deprivation-induced stress and oxidative stress were measured by MTT assay. For MTT assay, Cells were seeded into N2 medium in an amount of 7.5×10^3 cells, and then a neurotoxin or a nerve growth factor was added thereto to differentiate the cells and then 0.1 volume of 4 mg/ml MTT was further added. The mixture was stored at 37° C. for 3-4 hours. After 100 μl of solubilization buffer was added to the mixture and then stored for 24 hours, O.D. values were measured by ELISA assay.
NGF, increasing cell survival and inducing cell differentiation, was used as a positive control. After the cells were treated with berberine (0.25˜3 μg/ml), the cells were cultured for 2 days to induce nerve regeneration (see, Table 3 and FIG. 5a).

Q: With `COc1ccc2cc3[n+](cc2c1OC)CCc1cc2c(cc1-3)OCO2` [Berberine, 7,8,13,13a-tetradihydro-9,10-dimethoxy-2,3-(methylenedioxy) berbinium] as the molecule, how does the O.D. (RPMI + berberine 0.25 μg/ml) read?
A: 0.203

Q: And the “Average (O.D. relative to RPMI)” value (RPMI + berberine 0.25 μg/ml)?
A: 121%

Q: And the O.D. (RPMI + berberine 1.5 μg/ml)?
A: 0.239

Q: What about the “Average (O.D. relative to RPMI)” value (RPMI + berberine 1.5 μg/ml) of the same molecule?
A: 142%

Q: What about the O.D. (RPMI + berberine 3 μg/ml) of the same molecule?
A: 0.262

Q: What about the “Average (O.D. relative to RPMI)” value (RPMI + berberine 3 μg/ml) of the same molecule?
A: 156%

Q: What about the “cell survival rate versus control group” value (serum deprivation, berberine (1.5˜3 μg/ml elsewhere in the source)) of the same molecule?
A: 1.5 times
